Experimental data from the supplement of paper PMC10307832.

What was measured:
Assay in all cases: relative viability (nuclei count vs DMSO), 5 days (fraction); higher = more cells survive
[1] = compound: C1=CC=C(C(=C1)C2=CC=C(C=C2)C3=CSC4=C3C(=C(C(=O)N4)C#N)O)O
How it was run: (§1)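 Viability here means nuclei in treated wells divided by nuclei in vehicle wells, reported as the median across plates. Only plates with control CV below 25% and at least one doubling passed. Lung cancer cell lines in 1536-well plates were exposed to five √10-spaced library-drug doses for 5 days and counted from 4× Hoechst images in MetaXpress.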

TGX 221 = compound: CC1=CN2C(=O)C=C(N=C2C(=C1)C(C)NC3=CC=CC=C3)N4CCOCC4 [TGX 221]
How it was run: as §1

Ricolinostat = compound: O=C(CCCCCCNC(=O)c1cnc(N(c2ccccc2)c2ccccc2)nc1)NO [Ricolinostat]
How it was run: as §1

TGX 221 + Crizotinib = compound: CC1=CN2C(=O)C=C(N=C2C(=C1)C(C)NC3=CC=CC=C3)N4CCOCC4 [TGX 221] + C[C@@H](Oc1cc(-c2cnn(C3CCNCC3)c2)cnc1N)c1c(Cl)ccc(F)c1Cl [Crizotinib] (partner 1 µM)
How it was run: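 Five library-drug doses in √10 steps were combined with a fixed anchor-drug dose, or a single drug was given alone, by pin tool to lung cancer cell lines in 1536-well plates the day after seeding. Nuclei were stained and counted after 5 days. Relative viability is the nuclei count in treated wells over that in vehicle wells, taken as the median of duplicate plates.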

| Cell Line | relative viability ([1]; 0.08 µM) | relative viability ([1]; 0.253 µM) | relative viability ([1]; 0.8 µM) | relative viability ([1]; 2.53 µM) | relative viability ([1]; 8 µM) | relative viability (TGX 221; 0.08 µM) | relative viability (TGX 221; 0.253 µM) | relative viability (TGX 221; 0.8 µM) | relative viability (TGX 221; 2.53 µM) | relative viability (TGX 221; 8 µM) | relative viability (Ricolinostat; 0.08 µM) | relative viability (Ricolinostat; 0.253 µM) | relative viability (Ricolinostat; 0.8 µM) | relative viability (Ricolinostat; 2.53 µM) | relative viability (TGX 221 + Crizotinib; first compound 0.08 µM) | relative viability (TGX 221 + Crizotinib; first compound 0.253 µM) | relative viability (TGX 221 + Crizotinib; first compound 0.8 µM) | relative viability (TGX 221 + Crizotinib; first compound 2.53 µM) | relative viability (TGX 221 + Crizotinib; first compound 8 µM) |
| --- | --- | --- | --- | --- | --- | --- | --- | --- | --- | --- | --- | --- | --- | --- | --- | --- | --- | --- | --- |
| NCI-H3122 | 0.974 | 1.03 | 1.03 | 1.08 | 0.843 | 1 | 0.985 | 1.02 | 0.969 | 1.01 | 0.94 | 1.01 | 0.992 | 1.07 | 0.278 | 0.227 | 0.281 | 0.294 | 0.356 |
| HCC-15 | 0.958 | 1.14 | 1.04 | 1.04 | 0.904 | 0.945 | 0.965 | 0.9 | 0.916 | 0.969 | 0.847 | 0.94 | 0.983 | 0.938 | 0.821 | 0.783 | 0.852 | 0.772 | 0.811 |
| NCI-H2009 | 0.971 | 1.01 | 0.987 | 1.01 | 0.884 | 0.967 | 0.987 | 1.01 | 0.999 | 0.868 | 0.861 | 0.929 | 0.905 | 0.75 | 0.964 | 0.978 | 1 | 1.03 | 0.773 |
| NCI-H23 | 0.948 | 1.03 | 1.07 | 0.978 | 0.805 | 0.993 | 0.861 | 0.909 | 0.825 | 0.932 | 0.779 | 1.03 | 0.851 | 0.895 | 0.58 | 0.391 | 0.518 | 0.465 | 0.454 |
| NCI-H1623 | 1.04 | 1.1 | 0.927 | 1.04 | 0.774 | 1.04 | 0.863 | 0.949 | 0.82 | 0.991 | 0.933 | 0.972 | 1.12 | 0.889 | – | – | – | – | – |
| NCI-H1734 | 0.833 | 0.992 | 0.971 | 1.01 | 0.753 | 0.91 | 0.892 | 1 | 0.934 | 0.9 | 0.81 | 1.03 | 0.935 | 0.894 | 0.652 | 0.643 | 0.643 | 0.588 | 0.537 |
| NCI-H2170 | 1.01 | 0.961 | 0.953 | 0.995 | 0.804 | 0.959 | 0.958 | 0.989 | 0.93 | 0.993 | 0.904 | 0.939 | 1.01 | 1.04 | 1.11 | 1.2 | 1.19 | 0.987 | 1.14 |
| NCI-H2342 | 0.971 | 1.15 | 0.926 | 0.953 | 0.795 | 0.912 | 0.997 | 0.947 | 1.01 | 0.945 | 0.768 | 0.912 | 0.916 | 1.05 | – | – | – | – | – |
| HCC-366 | 0.829 | 1.08 | 1.07 | 1.01 | 0.638 | 0.942 | 0.999 | 1.03 | 0.957 | 1.01 | 0.984 | 1.03 | 1.03 | 0.769 | 0.561 | 0.524 | 0.483 | 0.448 | 0.398 |
